Assay results from US20230355647A1, “Marker for determining anti-cancer effects of mitochondrial oxidative phosphorylation pathway inhibitor” (NANJING SHIJIANG MEDICINE TECHNOLOGY CO., LTD, priority 2020, published 2023).

What was measured:
WSU-DLCL2 = assay: Cell viability (CellTiter-Glo), WSU-DLCL2; assay type: cell-based; conditions: Homo sapiens, WSUDLCL2; WSU-DLCL2 cell line, 3-4 days of culture
Method: (§1) Cell viability was detected using the Promega CellTiter-Glo kit, the kit reflected cell viability by directly measuring intracellular ATP content. The inhibitory effect (IC50 value) of Gboxin, a mitochondrial oxidative phosphorylation pathway inhibitor, on different tumor cell lines was tested in the Example. The name, source, and culture condition of each tumor cell line were as follows: Cell line WSU-DLCL2 (DSMZ, No. ACC-575) was cultured in 10% fetal bovine serum-containing RPMI1640 medium (+P/S). […] Cell viability was detected using the Promega CellTiter-Glo kit, the kit reflected cell viability by directly measuring intracellular ATP content.

BT-549 = assay: Cell viability (CellTiter-Glo), BT-549; assay type: cell-based; conditions: Homo sapiens; BT-549 cell line, 3-4 days of culture
Method: (§2) Cell viability was detected using the Promega CellTiter-Glo kit, the kit reflected cell viability by directly measuring intracellular ATP content. The inhibitory effect (IC50 value) of Gboxin, a mitochondrial oxidative phosphorylation pathway inhibitor, on different tumor cell lines was tested in the Example. The name, source, and culture condition of each tumor cell line were as follows:
Cell line BT-549 (ATCC, No. HTB-122) was cultured in RPMI1640 medium containing 10% fetal bovine serum and 0.023 IU/ml human insulin (+P/S).
(§3) The above tumor cells were cultured in the relevant medium (+P/S), and incubated for 3 h, then the gradient diluted Gboxin was added, and IC50 (50% inhibiting concentration) was measured after 3-4 days of culture.

DU 145 = assay: Cell viability (CellTiter-Glo), DU 145; assay type: cell-based; conditions: Homo sapiens; DU 145 cell line, 3-4 days of culture
Method: as §2
Cell line DU 145 (ATCC, No. HTB-81) was cultured in 10% fetal bovine serum-containing EMEM medium (+P/S).
as §3

Jurkat, Clone E6-1 = assay: Cell viability (CellTiter-Glo), Jurkat, Clone E6-1; assay type: cell-based; conditions: Homo sapiens, Clone E6-1 cell line, 3-4 days of culture
Method: as §2
Cell line Jurkat, Clone E6-1 (ATCC, No. TIB-152) was cultured in 10% fetal bovine serum-containing RPMI1640 medium (+P/S).
as §3

OCI-LY-19 = assay: Cell viability (CellTiter-Glo), OCI-LY-19; assay type: cell-based; conditions: Homo sapiens, OCI-LY19; OCI-LY-19 cell line, 3-4 days of culture
Method: as §2
Cell line OCI-LY-19 (DSMZ, No. ACC-528) was cultured in 80-90% alpha-MEM medium containing 10-20% h.i. FBS (+P/S).
as §3

H9 = assay: Cell viability (CellTiter-Glo), H9; assay type: cell-based; conditions: Homo sapiens; H9 cell line, 3-4 days of culture
Method: as §2
Cell line H9 (ATCC, No. HTB-176) was cultured in 10% fetal bovine serum-containing RPMI1640 medium (+P/S).
as §3

NCI-H196 = assay: Cell viability (CellTiter-Glo), NCI-H196; assay type: cell-based; conditions: NCI-H196 cell line, 3-4 days of culture
Method: as §2
Cell line NCI-H196 (ATCC, No. CRL-5823) was cultured in 10% fetal bovine serum-containing RPMI1640 medium (+P/S).
as §3

HCC1806 = assay: Cell viability (CellTiter-Glo), HCC1806; assay type: cell-based; conditions: Homo sapiens; HCC1806 cell line, 3-4 days of culture
Method: as §2
Cell line HCC1806 (ATCC, No. CRL-2335) was cultured in 10% fetal bovine serum-containing RPMI1640 medium (+P/S).
as §3

OCI-AML-4 = assay: Cell viability (CellTiter-Glo), OCI-AML-4; assay type: cell-based; conditions: OCI-AML-4 cell line, 3-4 days of culture
Method: as §2
Cell line OCI-AML-4 (DSMZ, No. ACC-729) was cultured in alpha-MEM medium containing 20% fetal bovine serum and 20% volume fraction of 5637 cell line adjusted medium (+P/S).
as §3

MDA-MB-453 = assay: Cell viability (CellTiter-Glo), MDA-MB-453; assay type: cell-based; conditions: Homo sapiens; MDA-MB-453 cell line, 3-4 days of culture
Method: as §1, with “MDA-MB-453 (ATCC,” for “WSU-DLCL2 (DSMZ,”, “HTB-131)” for “ACC-575)”, “Leibovitz's L-15” for “RPMI1640”

SU.86.86 = assay: Cell viability (CellTiter-Glo), SU.86.86; assay type: cell-based; conditions: Homo sapiens; SU.86.86 cell line, 3-4 days of culture
Method: as §2
Cell line SU.86.86 (ATCC, No. CRL-1837) was cultured in 10% fetal bovine serum-containing RPMI1640 medium (+P/S).
as §3

MDA-MB-231 = assay: Cell viability (CellTiter-Glo), MDA-MB-231; assay type: cell-based; conditions: Homo sapiens; MDA-MB-231 cell line, 3-4 days of culture
Method: as §2
Cell line MDA-MB-231 (ATCC, No. HTB-26) was cultured in 10% fetal bovine serum-containing Leibovitz's L-15 medium (+P/S).
as §3

[1] = system: brain tumors and other tumors; conditions: study published in Nature (2019); cited from earlier work
C3A = assay: Cell viability (CellTiter-Glo), C3A; assay type: cell-based; conditions: Homo sapiens; C3A cell line, 3-4 days of culture
Method: as §2
Cell line C3A (ATCC, No. CRL-10741) was cultured in 10% fetal bovine serum-containing EMEM medium (+P/S).
as §3

GB-1 = assay: Cell viability (CellTiter-Glo), GB-1; assay type: cell-based; conditions: Homo sapiens; GB-1 cell line, 3-4 days of culture
Method: as §2
Cell line GB-1 (JCRB, No. IFO50489) was cultured in 10% fetal bovine serum-containing DMEM medium (+P/S).
as §3
Cell viability was detected using the Promega CellTiter-Glo kit, the kit reflected cell viability by directly measuring intracellular ATP content. In this experiment, the IC50 values of Oligomycin A or IACS-010759, a mitochondrial oxidative phosphorylation pathway inhibitor, on different tumor cells was determined.
The different tumor cells were cultured in the relevant medium (+P/S) as shown in Example 2, and incubated for 3 h, then the gradient diluted Oligomycin A or IACS-010759 was added respectively, and IC50 (50% inhibiting concentration) of Oligomycin A or IACS-010759 on different tumor cells was measured after 3-4 days of culture.

769-P = assay: Cell viability (CellTiter-Glo), 769-P; assay type: cell-based; conditions: Homo sapiens; 769-P cell line, 3-4 days of culture
Method: as §2
Cell line 769-P (ATCC, No. CRL-1933) was cultured in 10% fetal bovine serum-containing RPMI1640 medium (+P/S).
as §3

## CCc1n(CC(=O)O[C@@H]2C[C@H](C)CC[C@H]2C(C)C)c2ccccc2[n+]1C.[Cl-] [Gboxin]
WSU-DLCL2
  IC50: 0.682 µM
BT-549
  IC50: 3.28 µM
DU 145
  IC50: 9.91 µM
Jurkat, Clone E6-1
  IC50: 3.51 µM
OCI-LY-19
  IC50: 2.51 µM
H9
  IC50: 3.34 µM
NCI-H196
  IC50: 19.3 µM
HCC1806
  IC50: 3.18 µM
OCI-AML-4
  IC50: 3.34 µM
MDA-MB-453
  IC50: 0.942 µM
SU.86.86
  IC50: 13.7 µM
MDA-MB-231
  IC50: 17.8 µM
[1]
  killing effect on brain tumors and other tumors: excellent killing effect
C3A
  IC50: 25.7 µM
GB-1
  IC50: > 30 µM
769-P
  IC50: > 30 µM
